ChEMBL document CHEMBL1151325, “New xenia diterpenes isolated from the soft coral, xenia florida” (J Nat Prod, 1998)
Calls of active or inactive are those of the source. No cut-off for these calls is given here.

Key:
Aeromonas salmonicida = assay: Antibacterial activity against Aeromonas salmonicida at 100 ug/disk by paper disk method; format: functional, organism-based
Staphylococcus aureus = assay: Antibacterial activity against Staphylococcus aureus at 100 ug/disk by paper disk method; format: functional, organism-based

C=C1CC[C@@H]2O[C@@]2(C)CC[C@@H]2/C(=C\C=C\C(C)C)COC(=O)[C@@H]12
Activity (Aeromonas salmonicida): Active | Activity (Staphylococcus aureus): Active

CC(C)/C=C/C=C1/COC(=O)[C@@H]2[C@@H]1CC[C@@]1(C)C[C@]2(O)CC[C@@H]1O
Activity (Aeromonas salmonicida): Active | Activity (Staphylococcus aureus): Active
